Data taken from ChEMBL document CHEMBL1201862, “PubChem BioAssay data set” (2004).
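Tested at 5 concentrations; 48 h exposure; 96-well plates; endpoints linearly interpolated, else capped at highest concentration. The concentration for 50% growth inhibition is given as GI50.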 Calls of active or inactive are those of the source. Rule as the data show it: active = GI50 up to about 1.1 µM and inactive = higher.

Key:
Experiment in all cases: NCI-60 cell line screen, 48 h
MOLT-4 = test system: MOLT-4
SF-268 = test system: SF-268
PC-3 = test system: PC-3
SW-620 = test system: SW-620
A549 = test system: A549
786-0 = test system: 786-0
UACC-257 = test system: UACC-257
RXF 393 = test system: RXF 393
HCT-15 = test system: HCT-15
COLO 205 = test system: COLO 205
CAKI-1 = test system: CAKI-1
OVCAR-4 = test system: OVCAR-4
LOX IMVI = test system: LOX IMVI
Malme-3M = test system: Malme-3M
Hs-578T = test system: Hs-578T
RPMI-8226 = test system: RPMI-8226
NCI-H226 = test system: NCI-H226
SF-295 = test system: SF-295
HL-60 = test system: HL-60

`CCC(C)C(NC(=O)C(CCCC[N+](=N)N)NC(=O)C(CCCC[N+](=N)N)NC(=O)c1ccc(OC)cc1)C(=O)NC(CCCC[N+](=N)N)C(=O)N1CCCC1C(=O)NC(CCCCN)C(=O)NC(CC(C)C)C(N)=O` (configuration not stated) was tested, and the GI50 (MOLT-4) was > 100 µM (inactive), the GI50 (SF-268) was > 100 µM (inactive) and the GI50 (PC-3) was > 100 µM (inactive). For the same compound, the GI50 (SW-620) was > 100 µM (inactive), the GI50 (A549) was > 100 µM (inactive) and the GI50 (786-0) was > 100 µM (inactive). The GI50 (UACC-257) was > 100 µM (inactive), the GI50 (RXF 393) was > 100 µM (inactive) and the GI50 (HCT-15) was greater than 100 µM. The GI50 (COLO 205) was > 100 µM (inactive), the GI50 (CAKI-1) was > 100 µM (inactive) and the GI50 (OVCAR-4) was > 100 µM (inactive). The GI50 (LOX IMVI) was > 100 µM (inactive), the GI50 (Malme-3M) was > 100 µM (inactive) and the GI50 (Hs-578T) was > 100 µM (inactive). The GI50 (RPMI-8226) was > 100 µM (inactive), the GI50 (NCI-H226) was > 100 µM (inactive) and the GI50 (SF-295) was > 100 µM (inactive).
In the case of `CC1CNC(c2ccc3c(c2)Cc2cc(C4=NC(C)CN4)ccc2-3)=N1` (configuration not stated), the GI50 (MOLT-4) is reported as 37.8 µM (inactive), the GI50 (SF-268) is reported as 26.1 µM (inactive) and the GI50 (PC-3) is reported as 43.8 µM (inactive). For the same compound, the GI50 (SW-620) was 56.1 µM (inactive), the GI50 (A549) was > 100 µM (inactive) and the GI50 (786-0) was 54.3 µM (inactive). For the same compound, the GI50 (UACC-257) was 32.6 µM (inactive), the GI50 (RXF 393) was > 100 µM (inactive) and the GI50 (HCT-15) was greater than 100 µM. The GI50 (COLO 205) was 54 µM (inactive), the GI50 (CAKI-1) was > 100 µM (inactive) and the GI50 (OVCAR-4) was 19.1 µM (inactive). The GI50 (LOX IMVI) was 47.2 µM (inactive), the GI50 (Malme-3M) was 19.2 µM (inactive) and the GI50 (Hs-578T) was 38.1 µM (inactive). For the same compound, the GI50 (RPMI-8226) was 36.6 µM (inactive), the GI50 (NCI-H226) was 55.7 µM (inactive) and the GI50 (SF-295) was 71.9 µM (inactive).
In the case of `O=c1[nH]nc(Cc2ccccc2)n1CCO`, the GI50 (MOLT-4) is reported as > 100 µM (inactive), the GI50 (SF-268) is reported as > 100 µM (inactive) and the GI50 (PC-3) is reported as > 100 µM (inactive). The GI50 (SW-620) was > 100 µM (inactive), the GI50 (A549) was > 100 µM (inactive) and the GI50 (786-0) was > 100 µM (inactive). The GI50 (UACC-257) was > 100 µM (inactive), the GI50 (HCT-15) was greater than 100 µM and the GI50 (COLO 205) was > 100 µM (inactive). For the same compound, the GI50 (CAKI-1) was > 100 µM (inactive), the GI50 (OVCAR-4) was > 100 µM (inactive) and the GI50 (LOX IMVI) was > 100 µM (inactive). For the same compound, the GI50 (Malme-3M) was > 100 µM (inactive), the GI50 (Hs-578T) was > 100 µM (inactive) and the GI50 (RPMI-8226) was > 100 µM (inactive). The GI50 (NCI-H226) was > 100 µM (inactive) and the GI50 (SF-295) was > 100 µM (inactive).
For `NC(=O)CSc1nc2ccccc2c(=O)n1N`, the GI50 (MOLT-4) was > 100 µM (inactive), the GI50 (SF-268) was > 100 µM (inactive) and the GI50 (PC-3) was > 100 µM (inactive). The GI50 (SW-620) was > 100 µM (inactive), the GI50 (A549) was > 100 µM (inactive) and the GI50 (786-0) was > 100 µM (inactive). For the same compound, the GI50 (UACC-257) was > 100 µM (inactive), the GI50 (RXF 393) was > 100 µM (inactive) and the GI50 (HCT-15) was greater than 100 µM. The GI50 (COLO 205) was > 100 µM (inactive), the GI50 (CAKI-1) was > 100 µM (inactive) and the GI50 (OVCAR-4) was > 100 µM (inactive). For the same compound, the GI50 (LOX IMVI) was > 100 µM (inactive), the GI50 (Malme-3M) was > 100 µM (inactive) and the GI50 (Hs-578T) was > 100 µM (inactive). The GI50 (RPMI-8226) was > 100 µM (inactive), the GI50 (NCI-H226) was > 100 µM (inactive) and the GI50 (SF-295) was > 100 µM (inactive).
With `COc1ccc(N2C(=O)/C(=C\c3cc(OC)c(OC)c(OC)c3)SC2c2ccccc2)cc1` (configuration not stated) the GI50 (MOLT-4) was > 100 µM (inactive), the GI50 (SF-268) was > 100 µM (inactive) and the GI50 (SW-620) was > 100 µM (inactive). The GI50 (HL-60) was 10.4 µM (inactive), the GI50 (A549) was > 100 µM (inactive) and the GI50 (786-0) was > 100 µM (inactive). For the same compound, the GI50 (UACC-257) was 57.3 µM (inactive), the GI50 (RXF 393) was 42.1 µM (inactive) and the GI50 (HCT-15) was 58.2 µM. The GI50 (COLO 205) was 62.5 µM (inactive), the GI50 (CAKI-1) was > 100 µM (inactive) and the GI50 (OVCAR-4) was 79.8 µM (inactive). For the same compound, the GI50 (LOX IMVI) was 29.6 µM (inactive), the GI50 (Malme-3M) was 54.6 µM (inactive) and the GI50 (Hs-578T) was 50.9 µM (inactive). For the same compound, the GI50 (RPMI-8226) was 31.3 µM (inactive), the GI50 (NCI-H226) was > 100 µM (inactive) and the GI50 (SF-295) was 50.5 µM (inactive).
For `CC[C@@]1(O)C(=O)OCc2c1cc1n(c2=O)Cc2cc3cc(OC)ccc3nc2-1`, the GI50 (MOLT-4) was 0.00458 µM (active), the GI50 (SF-268) was 0.00509 µM (active) and the GI50 (PC-3) was 0.0364 µM (active). For the same compound, the GI50 (SW-620) was 0.0248 µM (active), the GI50 (HL-60) was 0.018 µM (active) and the GI50 (A549) was 0.0249 µM (active). The GI50 (786-0) was 0.00923 µM (active), the GI50 (UACC-257) was 0.15 µM (active) and the GI50 (RXF 393) was 0.016 µM (active). The GI50 (HCT-15) was 0.116 µM, the GI50 (COLO 205) was 0.116 µM (active) and the GI50 (CAKI-1) was 0.00476 µM (active). The GI50 (OVCAR-4) was 0.00845 µM (active), the GI50 (LOX IMVI) was 0.0221 µM (active) and the GI50 (Malme-3M) was 0.255 µM (active). The GI50 (RPMI-8226) was 0.107 µM (active), the GI50 (NCI-H226) was 0.016 µM (active) and the GI50 (SF-295) was 0.008 µM (active).
For `CCOC(=O)C(C(=O)OCC)C(=S)NC1OC(COC(C)=O)C(OC(C)=O)C(OC(C)=O)C1OC(C)=O` (configuration not stated), the GI50 (MOLT-4) was > 100 µM (inactive), the GI50 (SF-268) was > 100 µM (inactive) and the GI50 (SW-620) was > 100 µM (inactive). For the same compound, the GI50 (HL-60) was > 100 µM (inactive), the GI50 (A549) was > 100 µM (inactive) and the GI50 (786-0) was > 100 µM (inactive). The GI50 (UACC-257) was > 100 µM (inactive), the GI50 (RXF 393) was > 100 µM (inactive) and the GI50 (HCT-15) was greater than 100 µM. The GI50 (COLO 205) was > 100 µM (inactive), the GI50 (CAKI-1) was > 100 µM (inactive) and the GI50 (OVCAR-4) was > 100 µM (inactive). For the same compound, the GI50 (LOX IMVI) was > 100 µM (inactive), the GI50 (Malme-3M) was > 100 µM (inactive) and the GI50 (Hs-578T) was > 100 µM (inactive). The GI50 (RPMI-8226) was > 100 µM (inactive), the GI50 (NCI-H226) was > 100 µM (inactive) and the GI50 (SF-295) was > 100 µM (inactive).
For `Cc1cc2c(cc1Cl)Sc1n[nH]c(=O)n1S2(=O)=O`, the GI50 (MOLT-4) was > 100 µM (inactive), the GI50 (SF-268) was > 100 µM (inactive) and the GI50 (PC-3) was > 100 µM (inactive). For the same compound, the GI50 (SW-620) was > 100 µM (inactive), the GI50 (HL-60) was > 100 µM (inactive) and the GI50 (A549) was > 100 µM (inactive). The GI50 (786-0) was > 100 µM (inactive), the GI50 (UACC-257) was > 100 µM (inactive) and the GI50 (HCT-15) was greater than 100 µM. The GI50 (COLO 205) was > 100 µM (inactive), the GI50 (CAKI-1) was > 100 µM (inactive) and the GI50 (OVCAR-4) was > 100 µM (inactive). For the same compound, the GI50 (LOX IMVI) was > 100 µM (inactive), the GI50 (Malme-3M) was 40.6 µM (inactive) and the GI50 (Hs-578T) was > 100 µM (inactive). For the same compound, the GI50 (NCI-H226) was > 100 µM (inactive) and the GI50 (SF-295) was > 100 µM (inactive).
